Results reported in patent US20230292776A1, “GAS PHASE TREATMENT OF PRODUCE” (priority 2022, published 2023).

System: mandarins
Assay: Visible appearance of vapor-treated mandarins
Assay type: in vivo, mandarin
Method: Example 1. The antifungal activity of diallyl disulfide (DADS) vapor against Penicillium digitatum (Pd) was tested in mandarins. All samples were wounded by puncturing with a screw and infected by dispensing 1000 Pd spores suspended in 10 μL of water into each wound. The test groups consisted of mandarins that were: untreated; dipped in a solution of 1 g/L of imazalil; and exposed for 72 hours to the vapor of 3 mL of DADS in a Petri dish.
Example 2. The antifungal activity of allyl isothiocyanate (AITC) and DADS vapor was tested against Pd and Penicillium italicum (Pi) in mandarins. All samples were wounded by puncturing with a screw. Mandarins were infected by dispensing either 1000 Pd spores or 1000 Pi spores suspended in 10 μL into the wound. The test groups consisted of mandarins that were: uninfected and untreated; uninfected and treated by dipping in a solution of 1 g/L of imazalil; infected with Pd and untreated; infected with Pd and exposed to AITC; infected with Pd and exposed to DADS; infected with Pi and untreated; infected with Pi and exposed to AITC; and infected with Pi and exposed to DADS. Exposure to AITC or DADS consisted of exposing the mandarins for 72 hours to the vapor of 3 mL of the respective compound dispensed in a Petri dish. […] DADS vapor reduced the incidence of Pd mold by 85% and Pi mold by 30% compared to the respective untreated/infected test groups. […] Both AITC and DADS were effective at preventing fungal growth. The inhibition from AITC was approximately 100%, with some changes in visible appearance.
Example 3. The antifungal activity of a reduced dose of AITC vapor against Pd in mandarins was tested. All samples were wounded by puncturing with a screw. Mandarins were infected by dispensing 1000 Pd spores suspended in 10 μL of water into each wound. The test groups consisted of mandarins that were: uninfected and untreated; infected with Pd and untreated; and exposed to the vapor of 500 μL of AITC in a Petri dish for 72 hours.
Example 4. The antifungal activity of a range of AITC vapor concentrations was tested against Pd in mandarins. All mandarins were wounded by puncturing with a screw and infected by dispensing 1000 Pd spores suspended in 10 μL of water in each wound. The fruit was then placed in an airtight container, a range of AITC volumes were disposed onto a Whatman filter paper disc, the disc was suspended in front of a battery-powered fan, and the container closed for 18 hours. The mandarins were then left at ambient temperature and high humidity for 6 days. The test groups were mandarins that were infected and untreated, and infected and treated with 62.5 μL 125 μL 250 μL and 500 μL on the filter paper disc. […]
Example 5. […] The test groups were then left at ambient temperature, high humidity, and assessed for Pd mold after 6 days. […]

SMILES | fruit with spotting and darkening of the peel (Example 5, 125 μL, 2 hour treatment) | visible appearance of mandarins (in vivo) | visible appearance of mandarins (Example 1, 72 hours vapor of 3 mL) | visible appearance of mandarins (Example 2, 72 hours vapor of 3 mL)
C=CCN=C=S [AITC, allyl isothiocyanate] | 62.5% | visibly darker than untreated fruit | – | –
C=CCSSCC=C [DADS, diallyl disulfide] | – | – | no visible degradation or discoloration | No difference in appearance
